Laboratory results reported in US11827693B2, “Composition and methods based on neutralizing antibodies delivered intranasally for enhanced therapeutic efficacy” (priority 2013, dated 2023).

Test system: H1 influenza virus A/Puerto Rico/8/1934 (PR8)
Parameters: species or system BALB/c mice
Settings: mouse, in vivo

CCOC(=O)C1=C[C@@H](OC(CC)CC)[C@H](NC(C)=O)[C@@H](N)C1 [Tamiflu]
protection: completely ineffective in protection
